From ChEMBL document CHEMBL3885861, “Open TG-GATES”

Species on record: Rattus norvegicus
Assay: Open TG-GATES - Regimen: Daily Repeat
Assay type: toxicity, organism-based, Sprague-Dawley
Set-up: regimen Daily Repeat, gender Male, age 6 weeks
Conditions: in vivo, sc, 0.002 mg/kg, route subcutaneous injection, dose 2 ug/Kg, dose level Low; for APTT / Bas / Eos / Fbg / Hb / Ht / Lym / MCH / MCHC / MCV / Mono / Neu / PT / Plat / RBC / Ret / WBC: tissue Blood; for KIDNEY_L / KIDNEY_R / KIDNEY_TOTAL: tissue Kidney; for LIVER: tissue Liver; for A/G / ALP / ALT / AST / BUN / CRE / Ca / Cl / DBIL / GLC / IP / K / LDH / Na / PL / RALB / TBIL / TC / TG / TP / gamma-GTP: tissue Plasma

Q: Which results are given for `CC(=O)O.N=C(N)NCCC[C@@H](NC(=O)[C@@H]1CCCN1C(=O)[C@@H]1CSSCCC(=O)N[C@@H](Cc2ccc(O)cc2)C(=O)N[C@@H](Cc2ccccc2)C(=O)N[C@@H](CCC(N)=O)C(=O)N[C@@H](CC(N)=O)C(=O)N1)C(=O)NCC(N)=O` [DESMOPRESSIN ACETATE]?
A: TERMINAL_BW (72 h, time 3 day): 236.2 g; APTT (72 h, time 3 day): 16.3 s; Bas (72 h, time 3 day): 0%; Eos (72 h, time 3 day): 1.2%; Fbg (72 h, time 3 day): 261.2 mg/dL; Hb (72 h, time 3 day): 13.3 g/dL; Ht (72 h, time 3 day): 41%; Lym (72 h, time 3 day): 72%; MCH (72 h, time 3 day): 21.1 pg; MCHC (72 h, time 3 day): 32.4%; MCV (72 h, time 3 day): 65.2 fL; Mono (72 h, time 3 day): 8.6%; Neu (72 h, time 3 day): 18.2%; PT (72 h, time 3 day): 12.2 s; Plat (72 h, time 3 day): 133.6 x10_4/uL; RBC (72 h, time 3 day): 630 x10_4/ul; Ret (72 h, time 3 day): 8.4%; WBC (72 h, time 3 day): 92.6 x10_2/uL; KIDNEY_L (72 h, time 3 day): 1 g; KIDNEY_R (72 h, time 3 day): 1 g; KIDNEY_TOTAL (72 h, time 3 day): 2.1 g; LIVER (72 h, time 3 day): 10.6 g; A/G (72 h, time 3 day): 2; ALP (72 h, time 3 day): 1631.2 IU/L; ALT (72 h, time 3 day): 37 IU/L; AST (72 h, time 3 day): 69.2 IU/L; BUN (72 h, time 3 day): 15 mg/dL; CRE (72 h, time 3 day): 0.4 mg/dL; Ca (72 h, time 3 day): 11.2 mg/dL; Cl (72 h, time 3 day): 104.8 meq/L; DBIL (72 h, time 3 day): 0.01 mg/dL; GLC (72 h, time 3 day): 199 mg/dL; IP (72 h, time 3 day): 7.1 mg/dL; K (72 h, time 3 day): 5.1 meq/L; LDH (72 h, time 3 day): 180.4 IU/L; Na (72 h, time 3 day): 136.8 meq/L; PL (72 h, time 3 day): 146.4 mg/dL; RALB (72 h, time 3 day): 3.7 g/dL; TBIL (72 h, time 3 day): 0.034 mg/dL; TC (72 h, time 3 day): 79.2 mg/dL; TG (72 h, time 3 day): 95.2 mg/dL; TP (72 h, time 3 day): 5.6 g/dL; gamma-GTP (72 h, time 3 day): 1 IU/L; TERMINAL_BW ([…], time 7 day): 262 g; TERMINAL_BW ([…], time 14 day): 330.1 g; TERMINAL_BW ([…], time 28 day): 414.7 g; APTT ([…], time 7 day): 16.7 s; Bas ([…], time 7 day): 0%; Eos ([…], time 7 day): 1%; Fbg ([…], time 7 day): 265.2 mg/dL; Hb ([…], time 7 day): 13.9 g/dL; Ht ([…], time 7 day): 42.7%; Lym ([…], time 7 day): 70%; MCH ([…], time 7 day): 21.2 pg; MCHC ([…], time 7 day): 32.5%; MCV ([…], time 7 day): 65.2 fL; Mono ([…], time 7 day): 9.4%; Neu ([…], time 7 day): 19.8%; PT ([…], time 7 day): 12.1 s; Plat ([…], time 7 day): 106 x10_4/uL; RBC ([…], time 7 day): 655.8 x10_4/ul; Ret ([…], time 7 day): 6.9%; WBC ([…], time 7 day): 101 x10_2/uL; APTT ([…], time 14 day): 16.6 s; Bas ([…], time 14 day): 0%; Eos ([…], time 14 day): 1%; Fbg ([…], time 14 day): 253.8 mg/dL; Hb ([…], time 14 day): 14 g/dL; Ht ([…], time 14 day): 42.8%; Lym ([…], time 14 day): 75%; MCH ([…], time 14 day): 20.2 pg; MCHC ([…], time 14 day): 32.8%; MCV ([…], time 14 day): 61.5 fL; Mono ([…], time 14 day): 8.6%; Neu ([…], time 14 day): 15.2%; PT ([…], time 14 day): 12.1 s; Plat ([…], time 14 day): 134.8 x10_4/uL; RBC ([…], time 14 day): 696.6 x10_4/ul; Ret ([…], time 14 day): 5.6%; WBC ([…], time 14 day): 119.2 x10_2/uL; APTT ([…], time 28 day): 17.5 s; Bas ([…], time 28 day): 0%; Eos ([…], time 28 day): 1.2%; Fbg ([…], time 28 day): 251.8 mg/dL; Hb ([…], time 28 day): 15.1 g/dL; Ht ([…], time 28 day): 46%; Lym ([…], time 28 day): 76.2%; MCH ([…], time 28 day): 19.4 pg; MCHC ([…], time 28 day): 32.8%; MCV ([…], time 28 day): 59.4 fL; Mono ([…], time 28 day): 7.2%; Neu ([…], time 28 day): 15.8%; PT ([…], time 28 day): 12 s; Plat ([…], time 28 day): 117.6 x10_4/uL; RBC ([…], time 28 day): 774.6 x10_4/ul; Ret ([…], time 28 day): 4.2%; WBC ([…], time 28 day): 132 x10_2/uL; KIDNEY_L ([…], time 7 day): 1.2 g; KIDNEY_R ([…], time 7 day): 1.2 g; KIDNEY_TOTAL ([…], time 7 day): 2.4 g; KIDNEY_L ([…], time 14 day): 1.4 g; KIDNEY_R ([…], time 14 day): 1.4 g; KIDNEY_TOTAL ([…], time 14 day): 2.7 g; KIDNEY_L ([…], time 28 day): 1.5 g; KIDNEY_R ([…], time 28 day): 1.5 g; KIDNEY_TOTAL ([…], time 28 day): 3 g; LIVER ([…], time 7 day): 11.7 g; LIVER ([…], time 14 day): 14 g; LIVER ([…], time 28 day): 16.3 g; A/G ([…], time 7 day): 1.9; ALP ([…], time 7 day): 1102.8 IU/L; ALT ([…], time 7 day): 32.8 IU/L; AST ([…], time 7 day): 69.6 IU/L; BUN ([…], time 7 day): 17.8 mg/dL; CRE ([…], time 7 day): 0.4 mg/dL; Ca ([…], time 7 day): 13.6 mg/dL; Cl ([…], time 7 day): 99.4 meq/L; DBIL ([…], time 7 day): 0.012 mg/dL; GLC ([…], time 7 day): 198.6 mg/dL; IP ([…], time 7 day): 8.2 mg/dL; K ([…], time 7 day): 4.8 meq/L; LDH ([…], time 7 day): 155.6 IU/L; Na ([…], time 7 day): 130.6 meq/L; PL ([…], time 7 day): 132.2 mg/dL; RALB ([…], time 7 day): 3.7 g/dL; TBIL ([…], time 7 day): 0.044 mg/dL; TC ([…], time 7 day): 68.6 mg/dL; TG ([…], time 7 day): 99.4 mg/dL; TP ([…], time 7 day): 5.7 g/dL; gamma-GTP ([…], time 7 day): 1 IU/L; A/G ([…], time 14 day): 1.8; ALP ([…], time 14 day): 1109.8 IU/L; ALT ([…], time 14 day): 33.8 IU/L; AST ([…], time 14 day): 70 IU/L; BUN ([…], time 14 day): 16.6 mg/dL; CRE ([…], time 14 day): 0.4 mg/dL; Ca ([…], time 14 day): 10.8 mg/dL; Cl ([…], time 14 day): 106.2 meq/L; DBIL ([…], time 14 day): 0.01 mg/dL; GLC ([…], time 14 day): 183.8 mg/dL; IP ([…], time 14 day): 6.9 mg/dL; K ([…], time 14 day): 5.3 meq/L; LDH ([…], time 14 day): 146.8 IU/L; Na ([…], time 14 day): 138.4 meq/L; PL ([…], time 14 day): 135.6 mg/dL; RALB ([…], time 14 day): 3.6 g/dL; TBIL ([…], time 14 day): 0.028 mg/dL; TC ([…], time 14 day): 66.6 mg/dL; TG ([…], time 14 day): 111.2 mg/dL; TP ([…], time 14 day): 5.7 g/dL; gamma-GTP ([…], time 14 day): 1 IU/L; A/G ([…], time 28 day): 1.5; ALP ([…], time 28 day): 926.6 IU/L; ALT ([…], time 28 day): 27.8 IU/L; AST ([…], time 28 day): 62.6 IU/L; BUN ([…], time 28 day): 16.6 mg/dL; CRE ([…], time 28 day): 0.4 mg/dL; Ca ([…], time 28 day): 9.3 mg/dL; Cl ([…], time 28 day): 105 meq/L; DBIL ([…], time 28 day): 0.012 mg/dL; GLC ([…], time 28 day): 193 mg/dL; IP ([…], time 28 day): 6.4 mg/dL; K ([…], time 28 day): 4.9 meq/L; LDH ([…], time 28 day): 168 IU/L; Na ([…], time 28 day): 139.4 meq/L; PL ([…], time 28 day): 142 mg/dL; RALB ([…], time 28 day): 3.8 g/dL; TBIL ([…], time 28 day): 0.046 mg/dL; TC ([…], time 28 day): 71.8 mg/dL; TG ([…], time 28 day): 158.2 mg/dL; TP ([…], time 28 day): 6.3 g/dL; gamma-GTP ([…], time 28 day): 0.6 IU/L
